Experimental data published in patent publication EP4692089A1, “NITROGEN-CONTAINING HETEROCYCLIC COMPOUND AS AAK1 INHIBITOR” (Alicorn Pharmaceutical Co., Ltd., priority 2023, dated 2024).

What was measured:
AAK1 = biological target: T1, AAK1 (Homo sapiens, UniProt Q2M2I8); experiment: Effect on AP2M1 phosphorylation in 293T cells co-transfected with AAK1 and AP2M1 (Western blot, anti-p-AP2M1); assay type: cell-based; settings: p-AP2M1 level, incubated 3 h
T1 construct: HA; expressed in transfected cells; host or cells: 293T cells
Text: Experimental objective: The objective of this test example is to determine the effect of compounds on AP2M1 phosphorylation in cells.
Background principle: Adaptor-associated kinase 1 (AAK1), also known as AP2-associated kinase 1, is a 104 kDa serine/threonine kinase. AAK1 interacts with the adaptor protein 2 (AP2) complex and phosphorylates the threonine residue in the micro-subunit of AP2 (AP2M1), thereby increasing its binding affinity for certain tyrosine-based or dileucine-based sorting signals of some membrane receptors. The inhibitory effect of compounds on AAK1 was evaluated by detecting the phosphorylation level of AP2M1 in cells, so as to screen candidate compounds.
On the second day, each T25 flask was co-transfected with 16 µg of plasmids (1 µg of AAK1/HA/pIRES and 15 µg of Flag/AP2MI/pcDNA) using a Lip2000 transfection reagent. On the third day, the cells were digested and resuspended, centrifuged at 1000 rpm for 5 minutes, and then seeded into 24-well plates at 450 µl per well (2 × 10^5 cells/well). Gradient dilutions of the compounds to be tested were prepared, 50 µl was added to each well, mixed thoroughly, and incubated at 37°C for 3 h. DMSO was set as a control, and cells without plasmid transfection were set as a blank control. After incubation, the cells were collected and washed twice with PBS. The cells were lysed on ice for 30 minutes using a cell lysis buffer containing the protease inhibitor PMSF. The concentration of protein samples was determined using a BCA kit. Protein electrophoresis: The voltage for the stacking gel was set at 60 V, and that for the separating gel was set at 120 V. After electrophoresis, electrotransfer was initiated. Electrotransfer conditions were set at 250 mA for 2 h. Blocking with 5% BSA was performed for 1 h. A specific primary antibody, anti-p-AP2M1, was added, and incubation was carried out overnight at 4°C on a shaker. Washing with TBST was conducted 4 times, with 2.5 minutes each time. A secondary antibody was incubated on a shaker at room temperature for 1 h. Washing with TBST was conducted 4 times, with 2.5 minutes each time. ECL was used for development to detect the expression level of p-AP2M1. Western blot bands were processed and converted using Image J and GraphPad software to calculate IC50.
IC50 (half maximal inhibitory concentration) refers to the half-inhibitory concentration of the measured antagonist. It can indicate the concentration of a certain drug or substance (inhibitor) that achieves half of the inhibition effect on certain biological processes (or certain substances involved in these processes, such as enzymes, cellular receptors, or microorganisms).

AAK1 (30-330) protein [1] = biological target: T2, AAK1 (30-330) protein (Homo sapiens, UniProt Q2M2I8); experiment: CETSA test of binding ability to AAK1 protein (Western blot)
T2 construct: (His)6x (N); TEV protease cleavage site (N); made in house; host or cells: Escherichia coli BL21(DE3)
Procedure: Experimental objective: To detect the binding ability of compounds to AAK1 protein by means of a CETSA experiment.
Background principle: The CETSA experiment is a molecular detection means for measuring the affinity between drugs and target proteins. […] When a candidate drug is co-incubated with a target protein, if the candidate drug is an inhibitor of AAK1, it can bind to AAK1. […] On the contrary, the stability of the AAK1 protein after heating will be poorer, and the amount of the detected protein will be lower. In this way, the binding ability of the drug to the target protein can be evaluated, which is used for the screening of AAK1 protein inhibitors.
(§1) Expression of AAK1 (30-330) protein: The AAK1 sequence (residues 30-330) was cloned into the pET24N vector with an N-terminal (His)6x tag and a tobacco etch virus (TEV) protease cleavage site. The constructed vector was transformed into Escherichia coli BL21(DE3). When the bacteria were cultured with shaking to reach an OD value of 0.6, 1 mM IPTG was added. […] The bacterial cells were collected and subjected to ultrasonic disruption. The supernatant was obtained by centrifugation, and the protein was purified using Ni-NTA. After dialysis, the concentration and purity of the protein were determined.
CETSA sample preparation: Samples were incubated with candidate drugs, control drugs, and control reagents separately for 30 minutes. Each group of samples was heated at approximately 10 pre-set temperature points. After being returned to room temperature, the samples were centrifuged at 20000 g, and the supernatants were collected. Protein samples were denatured by heating at 100°C for 10 minutes with a sample buffer. After the samples were returned to room temperature, Western blot detection was performed on them; the protein loading amount was controlled at 20 µg. […] The same operations were followed, and Western blot detection was conducted. Protein electrophoresis: The voltage for the stacking gel was set at 60 V, and that for the separating gel was set at 120 V. After electrophoresis, electrotransfer was initiated. Electrotransfer conditions were set at 250 mA for 2 h. Blocking with 5% BSA was performed for 1 h. A specific primary antibody was added, and incubation was carried out overnight at 4°C on a shaker. Washing with TBST was conducted 4 times, with 2.5 minutes each time. A secondary antibody was incubated on a shaker at room temperature for 1 h. Washing with TBST was conducted 4 times, with 2.5 minutes each time. ECL was used for development to detect the expression levels of AAK1 protein in different groups and at each temperature point. Western blot bands were processed and converted using Image J and GraphPad software to calculate EC50.

AAK1 (30-330) protein [2] = biological target: T2, AAK1 (30-330) protein; experiment: AAK1 kinase assay (ADP generated, detected by HPLC); assay type: biochemical; settings: 3.5 nM AAK1, 22 µM ATP, 25°C, 3 h
Text: Experimental objective: The objective of this test example is to test the effect of compounds on AAK1 kinase function.
Background principle: AAK1 phosphorylates the threonine residue in the micro-subunit of AP2 (AP2M1). In this process, ATP provides phosphate groups to generate ADP. Therefore, the activity of AAK1 kinase can be evaluated by detecting the amount of ADP generated.
as §1
The reaction mixture was incubated in a metal bath at 25°C for 3 h. The reaction was terminated by adding 1% SDS, and the amount of ADP generated was detected by HPLC. IC50 values were calculated using GraphPad software.

T1 sequence (Q2M2I8 whole entry): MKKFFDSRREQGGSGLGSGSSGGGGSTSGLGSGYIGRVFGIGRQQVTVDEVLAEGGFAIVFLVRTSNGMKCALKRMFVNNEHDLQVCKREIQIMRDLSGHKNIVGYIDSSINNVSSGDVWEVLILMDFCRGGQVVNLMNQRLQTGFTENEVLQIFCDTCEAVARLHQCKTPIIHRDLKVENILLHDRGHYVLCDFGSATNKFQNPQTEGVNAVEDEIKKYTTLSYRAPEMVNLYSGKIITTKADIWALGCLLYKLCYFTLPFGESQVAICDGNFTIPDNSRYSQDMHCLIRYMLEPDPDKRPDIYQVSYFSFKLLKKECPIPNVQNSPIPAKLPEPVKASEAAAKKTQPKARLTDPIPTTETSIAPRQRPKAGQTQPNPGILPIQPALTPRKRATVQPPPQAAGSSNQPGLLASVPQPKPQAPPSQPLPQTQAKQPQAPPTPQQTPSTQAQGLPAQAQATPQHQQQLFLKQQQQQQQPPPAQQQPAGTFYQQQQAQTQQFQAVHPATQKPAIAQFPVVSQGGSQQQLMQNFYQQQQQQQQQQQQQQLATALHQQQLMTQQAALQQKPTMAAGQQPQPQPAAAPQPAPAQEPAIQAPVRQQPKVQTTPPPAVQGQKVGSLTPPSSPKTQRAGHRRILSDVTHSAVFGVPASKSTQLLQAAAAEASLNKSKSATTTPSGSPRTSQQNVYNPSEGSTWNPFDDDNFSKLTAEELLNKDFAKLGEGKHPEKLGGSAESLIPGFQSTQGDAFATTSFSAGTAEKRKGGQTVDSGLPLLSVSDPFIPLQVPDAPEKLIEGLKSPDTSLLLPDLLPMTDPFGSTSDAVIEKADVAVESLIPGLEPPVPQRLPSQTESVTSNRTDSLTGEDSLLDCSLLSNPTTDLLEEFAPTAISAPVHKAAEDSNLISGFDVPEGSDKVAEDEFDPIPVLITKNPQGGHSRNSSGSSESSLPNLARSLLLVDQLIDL
T2 sequence (Q2M2I8 30-330): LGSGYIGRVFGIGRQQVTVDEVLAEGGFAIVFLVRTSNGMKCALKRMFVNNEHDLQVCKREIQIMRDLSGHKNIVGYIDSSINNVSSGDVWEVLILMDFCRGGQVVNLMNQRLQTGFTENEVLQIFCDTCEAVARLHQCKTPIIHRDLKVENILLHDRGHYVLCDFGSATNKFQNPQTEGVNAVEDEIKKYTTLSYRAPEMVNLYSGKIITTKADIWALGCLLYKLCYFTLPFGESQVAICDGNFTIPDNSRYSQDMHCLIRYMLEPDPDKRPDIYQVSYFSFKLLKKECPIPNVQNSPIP

IC50 (AAK1) [µM] | EC50 (AAK1 (30-330) protein [1]) [µM] | IC50 (AAK1 (30-330) protein [2]) [µM] | SMILES
0.01 to 0.1 | 0.01 to 0.1 | 0.0321 | CC(C)C[C@@](C)(N)COc1ccc(-c2ccnc3ccnn23)nc1C(F)F [Compound 1, (R)-1-{[2-(difluoromethyl)-6-(pyrazolo[1,5-a]pyrimidin-7-yl)pyridin-3-yl]oxy}-2,4-dimet hylpentan-2-amine]
0.01 to 0.1 | 0.01 to 0.1 | 0.0283 | CC(C)C[C@@](C)(N)COc1ccc(-c2c[nH]c3ncccc23)nc1C(F)F [Compound 2, (R)-1-{[2-(difluoromethyl)-6-(1H-pyrrolo[2,3-b]pyridin-3-yl)pyridin-3-yl]oxy}-2,4-dimet hylpentan-2-amine]
0.01 to 0.1 | 0.01 to 0.1 | 0.0212 | CC(C)C[C@](C)(N)COc1ccc(-c2c[nH]c3ncccc23)nc1C(F)F [Compound 3]
0.01 to 0.1 | 0.01 to 0.1 | 0.0459 | CC(C)C[C@](C)(N)COc1ccc(-c2c[nH]c3nc(C(F)(F)F)ccc23)nc1C(F)F [Compound 4]
0.01 to 0.1 | 0.01 to 0.1 | 0.0861 | CC(C)C[C@@](C)(N)COc1ccc(-c2c[nH]c3nc(C(F)(F)F)ccc23)nc1C(F)F [Compound 5]
0.01 to 0.1 | 0.01 to 0.1 | 0.0752 | CC(C)C[C@](C)(N)COc1ccc(-c2ccnc3[nH]cnc23)nc1C(F)F [Compound 6]
0.01 to 0.1 | 0.1 to 1 | 0.101 | CC(C)C[C@@](C)(N)COc1ccc(-c2ccnc3[nH]cnc23)nc1C(F)F [Compound 7]
0.01 to 0.1 | 0.01 to 0.1 | 0.129 | CC(C)C[C@](C)(N)COc1ccc(-c2ccnc3[nH]c(C(F)(F)F)nc23)nc1C(F)F [Compound 8]
0.01 to 0.1 | 0.01 to 0.1 | 0.0992 | CC(C)C[C@@](C)(N)COc1ccc(-c2ccnc3[nH]c(C(F)(F)F)nc23)nc1C(F)F [Compound 9]
0.01 to 0.1 | 0.01 to 0.1 | 0.152 | CC(C)C[C@](C)(N)COc1ccc(-c2ccnc3c2nc(C(F)(F)F)n3C)nc1C(F)F [Compound 10]
0.01 to 0.1 | 0.01 to 0.1 | 0.123 | CC(C)C[C@@](C)(N)COc1ccc(-c2ccnc3c2nc(C(F)(F)F)n3C)nc1C(F)F [Compound 11]
0.01 to 0.1 | 0.01 to 0.1 | 0.0992 | CC(C)C[C@](C)(N)COc1ccc(-c2cncc3[nH]c(C(F)(F)F)nc23)nc1C(F)F [Compound 12]
0.01 to 0.1 | 0.01 to 0.1 | 0.168 | CC(C)C[C@@](C)(N)COc1ccc(-c2cncc3[nH]c(C(F)(F)F)nc23)nc1C(F)F [Compound 13]
0.01 to 0.1 | 0.01 to 0.1 | 0.102 | CC(C)C[C@](C)(N)COc1ccc(-c2c[nH]c3nc(F)ccc23)nc1C(F)F [Compound 14]
0.01 to 0.1 | 0.01 to 0.1 | 0.111 | CC(C)C[C@@](C)(N)COc1ccc(-c2c[nH]c3nc(F)ccc23)nc1C(F)F [Compound 15]
0.01 to 0.1 | 0.01 to 0.1 | 0.0872 | COc1ccnc2[nH]cc(-c3ccc(OC[C@@](C)(N)CC(C)C)c(C(F)F)n3)c12 [Compound 16, (S)-1-{[2-(difluoromethyl)-6-(4-methoxy-1H-pyrrolo[2,3-b]pyridin-3-yl)pyridin-3-yl]oxy}-2,4-dimethylpentan-2-amine tris(trifluoroacetate)]
0.1 to 1 | 0.01 to 0.1 | 0.0569 | COc1ccnc2[nH]cc(-c3ccc(OC[C@](C)(N)CC(C)C)c(C(F)F)n3)c12 [Compound 17, (R)-1-{[2-(difluoromethyl)-6-(4-methoxy-1H-pyrrolo[2,3-b]pyridin-3-yl)pyridin-3-yl]oxy}-2,4-dimethylpentan-2-amine]
0.01 to 0.1 | 0.01 to 0.1 | 0.0425 | CC(C)C[C@](C)(N)COc1ccc(-c2ccnc3c(F)cnn23)nc1C(F)F [Compound 18]
0.01 to 0.1 | 0.01 to 0.1 | 0.0873 | CC(C)C[C@@](C)(N)COc1ccc(-c2ccnc3c(F)cnn23)nc1C(F)F [Compound 19]
